By Kd is commonly meant a measure of binding affinity in units of concentration.

The values below come from PMC6829864, “Determination of Ligand Profiles for Pseudomonas aeruginosa Solute Binding Proteins” (International Journal of Molecular Sciences, 2019).

“Also recorded” adds a separate entry of the source.

Assay [1] concerns the target T1, PA2338 (Pseudomonas aeruginosa, UniProt Q9I1E0). Kind of assay: Isothermal titration calorimetry, PA2338. Type of assay: binding, Pseudomonas aeruginosa PAO1. The note with it: 25 °C. In general terms: In ITC the heat of successive injections is recorded.
Assay [2] deals with T2, PA0222 (Pseudomonas aeruginosa, UniProt Q9I6R6).
T2 sequence (Q9I6R6 29-352): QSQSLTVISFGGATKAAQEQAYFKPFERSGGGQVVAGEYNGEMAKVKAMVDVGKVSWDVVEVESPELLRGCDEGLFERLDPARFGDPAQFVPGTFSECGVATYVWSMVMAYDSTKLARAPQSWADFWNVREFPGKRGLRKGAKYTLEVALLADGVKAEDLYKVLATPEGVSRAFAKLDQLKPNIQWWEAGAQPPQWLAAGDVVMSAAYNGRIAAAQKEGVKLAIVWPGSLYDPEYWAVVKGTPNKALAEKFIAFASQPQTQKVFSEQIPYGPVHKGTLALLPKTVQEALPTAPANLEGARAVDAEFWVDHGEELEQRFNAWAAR
Kind of assay: Isothermal titration calorimetry, PA0222. In kind it is binding, Pseudomonas aeruginosa PAO1. The following applies: 25 °C.

Assay [3] addresses T2, PA0222. In kind it is binding. The following applies: Tm change vs ligand-free protein.
Assay [4] has as its target T3, PA2592 (Pseudomonas aeruginosa, UniProt Q9I0P5).
T3 sequence (Q9I0P5 20-367): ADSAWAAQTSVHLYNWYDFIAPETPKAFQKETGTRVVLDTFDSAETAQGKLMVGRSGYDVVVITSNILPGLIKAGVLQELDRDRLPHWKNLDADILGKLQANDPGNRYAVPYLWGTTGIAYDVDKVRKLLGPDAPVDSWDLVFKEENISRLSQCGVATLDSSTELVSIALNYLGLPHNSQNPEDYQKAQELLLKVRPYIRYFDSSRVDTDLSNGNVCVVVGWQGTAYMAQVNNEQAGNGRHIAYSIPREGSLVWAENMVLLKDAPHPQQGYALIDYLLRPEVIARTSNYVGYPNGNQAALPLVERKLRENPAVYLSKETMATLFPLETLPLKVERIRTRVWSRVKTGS
Kind of assay: biochemical. In kind it is binding.

The target of assay [5] is T3, PA2592. Kind of assay: DSF thermal shift ligand screening, PA2592. Type of assay: binding, Pseudomonas aeruginosa PAO1. The following applies: arrays PM2A, PM3B, PM5.
Assay [6] deals with T4, PA3889 (opuCC) (Pseudomonas aeruginosa, UniProt Q9HXC4). Kind of assay: Isothermal titration calorimetry, PA3889. Type of assay: binding, Pseudomonas aeruginosa PAO1. The note with it: 25 °C.
Assay [7] deals with T4, PA3889 (opuCC). Kind of assay: DSF thermal shift ligand screening, PA3889. In kind it is binding, Pseudomonas aeruginosa PAO1. The note with it: Tm change vs ligand-free protein.
Assay [8] relates to Pseudomonas aeruginosa PAO1. In kind it is cell-based. The note with it: chemoeffector 1 mM, except molybdate 0.1 mM.
Assay [9] has as its target T5, PA3610 (potD) (Pseudomonas aeruginosa, UniProt Q9HY16). Kind of assay: Isothermal titration calorimetry, PA3610. The note with it: 25 °C. In kind it is binding, Pseudomonas aeruginosa PAO1.
The target in assay [10] is T6, PA1342 (aatJ) (Pseudomonas aeruginosa, UniProt Q9I402).
T6 sequence (Q9I402 24-302): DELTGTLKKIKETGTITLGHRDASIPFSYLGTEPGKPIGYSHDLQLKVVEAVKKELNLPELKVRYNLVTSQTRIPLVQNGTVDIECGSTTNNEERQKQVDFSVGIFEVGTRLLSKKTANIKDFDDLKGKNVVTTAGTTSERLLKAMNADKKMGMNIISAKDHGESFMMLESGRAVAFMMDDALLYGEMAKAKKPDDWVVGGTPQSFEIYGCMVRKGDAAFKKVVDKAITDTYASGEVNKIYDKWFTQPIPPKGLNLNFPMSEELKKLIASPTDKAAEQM
Type of assay: binding. The following applies: 25 °C.

For assay [11], the target named is T6, PA1342 (aatJ). Kind of assay: DSF thermal shift ligand screening, PA1342. Type of assay: binding, Pseudomonas aeruginosa PAO1. The following applies: Tm change vs ligand-free protein.
For assay [12], the target named is T7, PA1074 (braC) (Pseudomonas aeruginosa, UniProt P21175). In kind it is binding, Pseudomonas aeruginosa PAO1. The note with it: Tm change vs ligand-free protein.
Assay [13] concerns the target T7, PA1074 (braC). Kind of assay: biochemical. In kind it is binding, Pseudomonas aeruginosa PAO1.
Assay [14] has as its target T1, PA2338. Kind of assay: DSF thermal shift ligand screening, PA2338. Type of assay: binding, Pseudomonas aeruginosa PAO1. The note with it: Tm change vs ligand-free protein.
Assay [15] concerns the target T5, PA3610 (potD). Kind of assay: DSF thermal shift ligand screening, PA3610. In kind it is binding, Pseudomonas aeruginosa PAO1. The following applies: Tm change vs ligand-free protein.
Assay [16] addresses PA0283 (sbp). Kind of assay: Isothermal titration calorimetry, PA0283. Type of assay: binding, Pseudomonas aeruginosa PAO1. The note with it: 25 °C.
Assay [17] deals with PA0283 (sbp). Kind of assay: DSF thermal shift ligand screening, PA0283. In kind it is binding, Pseudomonas aeruginosa PAO1. The note with it: Tm change vs ligand-free protein.
The target of assay [18] is T8, PA1493 (cysP) (Pseudomonas aeruginosa, UniProt Q9I3L9). Kind of assay: biochemical. Type of assay: binding, Pseudomonas aeruginosa PAO1.
Assay [19] deals with T8, PA1493 (cysP). The note with it: Tm change vs ligand-free protein.
The test system of assay [20] is PA4687 (hitA). In kind it is binding, Pseudomonas aeruginosa PAO1.
For assay [21], the system named is PA4687 (hitA). The following applies: Tm change vs ligand-free protein.

T5 sequence (Q9HY16 21-354): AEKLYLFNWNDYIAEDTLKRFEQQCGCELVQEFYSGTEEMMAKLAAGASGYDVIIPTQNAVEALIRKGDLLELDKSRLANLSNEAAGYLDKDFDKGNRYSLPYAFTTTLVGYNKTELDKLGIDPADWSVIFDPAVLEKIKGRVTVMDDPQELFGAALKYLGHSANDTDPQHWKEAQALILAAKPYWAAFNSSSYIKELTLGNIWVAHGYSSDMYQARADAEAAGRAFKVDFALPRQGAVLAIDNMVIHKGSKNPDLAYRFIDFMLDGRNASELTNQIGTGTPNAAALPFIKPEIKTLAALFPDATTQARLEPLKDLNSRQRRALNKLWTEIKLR
T1 sequence (Q9I1E0 23-436): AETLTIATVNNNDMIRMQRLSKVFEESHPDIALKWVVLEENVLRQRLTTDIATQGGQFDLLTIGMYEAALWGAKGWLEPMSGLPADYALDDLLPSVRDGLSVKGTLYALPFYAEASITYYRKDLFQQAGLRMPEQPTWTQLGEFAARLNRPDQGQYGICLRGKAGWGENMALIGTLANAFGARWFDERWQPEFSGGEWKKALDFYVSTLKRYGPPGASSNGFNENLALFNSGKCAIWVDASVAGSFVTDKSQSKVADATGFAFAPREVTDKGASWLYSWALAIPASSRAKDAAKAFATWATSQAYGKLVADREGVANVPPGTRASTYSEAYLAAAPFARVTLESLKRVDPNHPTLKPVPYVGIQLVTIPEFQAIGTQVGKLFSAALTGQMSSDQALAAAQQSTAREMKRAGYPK
T4 sequence (Q9HXC4 24-311): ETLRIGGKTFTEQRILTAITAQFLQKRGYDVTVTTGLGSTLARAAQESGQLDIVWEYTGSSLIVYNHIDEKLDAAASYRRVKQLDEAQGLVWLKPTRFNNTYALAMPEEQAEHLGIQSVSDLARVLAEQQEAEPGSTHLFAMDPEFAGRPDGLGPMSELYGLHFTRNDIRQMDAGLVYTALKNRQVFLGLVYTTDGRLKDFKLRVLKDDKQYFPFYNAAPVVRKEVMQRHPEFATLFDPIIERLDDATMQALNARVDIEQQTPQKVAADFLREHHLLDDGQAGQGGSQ
T7 sequence (P21175 27-373): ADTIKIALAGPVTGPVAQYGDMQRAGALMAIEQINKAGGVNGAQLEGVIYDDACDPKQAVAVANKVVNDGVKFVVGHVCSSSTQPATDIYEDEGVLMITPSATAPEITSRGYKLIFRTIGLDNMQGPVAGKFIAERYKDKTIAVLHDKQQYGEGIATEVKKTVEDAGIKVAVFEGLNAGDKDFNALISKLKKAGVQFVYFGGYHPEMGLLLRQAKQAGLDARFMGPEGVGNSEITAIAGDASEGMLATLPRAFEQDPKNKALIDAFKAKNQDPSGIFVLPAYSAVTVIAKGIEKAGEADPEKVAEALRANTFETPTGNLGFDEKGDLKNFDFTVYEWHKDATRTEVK
T8 sequence (Q9I3L9 23-332): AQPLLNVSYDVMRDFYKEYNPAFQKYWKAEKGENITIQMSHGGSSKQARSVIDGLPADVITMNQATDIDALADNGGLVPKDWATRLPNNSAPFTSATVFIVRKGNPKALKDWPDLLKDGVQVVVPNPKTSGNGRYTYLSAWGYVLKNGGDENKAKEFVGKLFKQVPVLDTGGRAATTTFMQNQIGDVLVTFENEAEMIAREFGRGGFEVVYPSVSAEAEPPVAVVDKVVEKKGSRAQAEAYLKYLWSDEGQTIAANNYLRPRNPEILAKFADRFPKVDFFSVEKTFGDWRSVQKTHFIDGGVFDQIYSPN

Turning to `OC[C@H]1O[C@H](O[C@H]2[C@H](O)[C@@H](O)C(O)O[C@@H]2CO)[C@H](O)[C@@H](O)[C@@H]1O` (mixture of isomers) [Maltose], the “No Binding Observed by ITC” value on PA2338 [1] was “absence of maltose binding”.
Consider `CC(N)CCC(=O)O` (centres unmarked) [4-aminovalerate, 4-aminovaleric acid], for which, on PA0222 [2], the “KD by ITC” value is recorded as “No binding” and the “No Binding Observed by ITC” value is reported as “failed to bind”. In addition, at PA0222 [3], the “Tm DSF (Tm increase)” value was found to be 2.2 °C.
Consider `NCCCCN=C(N)N` [Agmatine], for which the Kd at PA2592 [4] was 15 µM. Also, the “Tm DSF (Tm increase)” value at PA2592 [5] was 5.3 °C.
In the case of `NCCCC(=O)O` [GABA, γ-amino-butyric acid], the “Tm DSF (Tm increase)” value on PA0222 [3] amounted to 9.6 °C.
Take `C[N+](C)(C)CC(=O)O` [Glycine-betaine]: the Kd at PA3889 (opuCC) [6] (read-out: KD by ITC) worked out at 3 ± 0.4 µM. Further, the “Tm DSF (Tm increase)” value on PA3889 (opuCC) [7] is 3.2 °C. Moreover, the “Chemotaxis response in words” value in [8] is “very strong taxis”.
Consider `NCCc1c[nH]cn1` [Histamine], for which the “No Binding Observed by ITC” value is recorded as “failed to bind; also recorded: no measurable affinity” at PA0222 [2]; “no binding” on PA2592 [4] (PA2592, 25 °C); “did not reveal any binding” on PA3610 (potD) [9]. Further, at PA2592 [4] (PA2592, 25 °C), the “KD by ITC” value is listed as “No binding”. Further, the “Tm DSF (Tm increase)” value at PA2592 [5] is 3.9 °C.
For the molecule `NC(=O)C[C@H](N)C(=O)O` [L-Asn], the “No Binding Observed by ITC” value on PA1342 (aatJ) [10] was “No binding was observed”.
For the molecule `N[C@@H](CC(=O)O)C(=O)O` [L-Asp], at PA1342 (aatJ) [11], the “Tm DSF (Tm increase)” value was found to be 10.9 °C.
Turning to `NC(=O)CC[C@H](N)C(=O)O` [L-Gln], at PA1342 (aatJ) [10], the “No Binding Observed by ITC” value is “No binding was observed”.
For `CC(C)C[C@H](N)C(=O)O` [L-Leu], the “Tm DSF (Tm increase)” value at PA1074 (braC) [12] was 4.0 12.1 10.1 10.2 3.0 3.5 5.0 3.8 4.2 °C. On PA1074 (braC) [13], this molecule showed a Kd of 0.29 µM.
For `C[N+](C)(C)C[C@H](O)CC(=O)[O-]` [L-carnitine], at PA3889 (opuCC) [6], the “KD by ITC” value was “No binding” and the “No Binding Observed by ITC” value is given as “no binding heats were observed”. Besides, the “Tm DSF (Tm increase)” value on PA3889 (opuCC) [7] was found to be 2.8 °C. Also, the Chemotaxis result in assay [8] (capillary assay, 30 min) is listed as “Yes Yes (Positive chemotaxis was considered when the number of bacterial cells per capillary was superior to 5000.)”. For the same molecule, the “Chemotaxis response in words” value in [8] is “very strong taxis”.
Regarding `OC[C@@H](O)[C@@H](O)[C@H](O)[C@H](O)CO` [Mannitol], the Kd at PA2338 [1] (read-out: KD by ITC) was 0.83 ± 0.2 µM. Further, the “Tm DSF (Tm increase)” value at PA2338 [14] was determined as 4.1 °C.
As for `NCCCCN` [Putrescine], the “Tm DSF (Tm increase)” value at PA3610 (potD) [15] came to 13 n. d.^2 °C; at PA3610 (potD) [15] (listed as putrescine) it was 13 °C; on PA2592 [5], 4.4 °C. Further, the “No Binding Observed by ITC” value on PA0222 [2] is recorded as “no measurable affinity”. For the same molecule, the Kd was 31 ± 4 µM on PA2592 [4] and 4.8 ± 0.4 µM at PA3610 (potD) [9] (read-out: KD by ITC (converted)).
`NCCCCNCCCN` [Spermidine]: the “Tm DSF (Tm increase)” value on PA3610 (potD) [15] is listed as “did not stabilize the protein”. Further, the “No Binding Observed by ITC” value on PA0222 [2] is “failed to bind; also recorded: no measurable affinity”; on PA2592 [4] (PA2592, 25 °C) it was “no binding”; at PA3610 (potD) [9], “did not reveal any binding”.
For `O=S(O)(O)=S` [Thiosulphate], the “KD by ITC” value on PA0283 (sbp) [16] was “No binding No binding”. Also, the “Tm DSF (Tm increase)” value in the assay with PA0283 (sbp) [17] amounted to 2.1 °C; at PA1493 (cysP) [19], 7.4 °C. The “Chemotaxis response in words” value in assay [8] is recorded as “moderate taxis”. Also, the Kd at PA1493 (cysP) [18] was 0.29 ± 0.2 µM.
For the molecule Iron(III) citrate, the “No Binding Observed by ITC” value with PA4687 (hitA) [20] is “did not show any binding”. For the same molecule, the “Tm DSF (Tm increase)” value with PA4687 (hitA) [21] is “no significant increases in Tm”.
